Values after ≈ are worked out from the molar mass of the structure shown. Values joined by “and” are separate entries in the source; they are usually repeats but may differ in a detail not shown here. Identical values can stand only once. Like-named read-outs stand apart in the source and are kept apart here.
Columns and labels:
[1] = test system: K. pneumonia (ATCC 13833, wild-type); test: MIC on ESKAPE pathogens, K. pneumoniae
[2] = test system: M. tuberculosis strain H37Rv (ATCC 25618); test: MIC on M. tuberculosis by resazurin reduction microplate assay (REMA); type: cell-based; conditions: Mycobacterium tuberculosis, M. tuberculosis H37Rv, read-out: MIC Mtb
[3] = test system: E. coli (ATCC 25922, wild-type); test: MIC on ESKAPE pathogens, E. coli wild-type; type: cell-based; conditions: Escherichia coli, ATCC25922; E. coli ATCC 25922, wild-type; read-out: MIC Ec WT
[4] = test system: P. aeruginosa (PAO750 efflux-defective mutant, isogenic to PAO1); test: microbe, parasite or virus in culture; type: cell-based; conditions: Pseudomonas aeruginosa, PAO1, read-out: MIC Pa efflux
MsNDH-2 = MsNDH-2 (Mycolicibacterium smegmatis, UniProt A0QYD6); test: Inhibition of MsNDH-2 (NADH oxidation with menadione, absorbance at 340 nm); type: biochemical, M. smegmatis
[5] = Cytotoxicity on the MRC-5 cell line (resazurin); type: cell-based; conditions: human, MRC-5SV2 cells, MRC-5SV2, 3 days
Method: MRC-5SV2 cells were cultured in Earl’s MEM + 5% FCSi. Assays were performed in 96-well microtiter plates, each well containing about 10^4 cells/well. After 3 days of incubation with or without compounds, cell viability was assessed fluorimetrically after the addition of resazurin (λex 550 nm, λem 590 nm). The results were expressed as % reduction in cell growth/viability compared to untreated control wells and CC50 was determined. Testing/retesting strategy was as described above for HepG2 cells.

[6] = test system: A. baumannii (ATCC 19606, wild-type); test: MIC on ESKAPE pathogens, A. baumannii; type: cell-based; conditions: Acinetobacter baumannii, ATCC19606; A. baumannii ATCC 19606, wild-type; read-out: MIC Ab WT
[7] = test system: E. coli (D22, lpxC mutant, drug-hypersensitive); test: microbe, parasite or virus in culture; type: cell-based; conditions: Escherichia coli, read-out: MIC Ec D22
[8] = test system: P. aeruginosa (PAO1, wild-type); test: MIC on ESKAPE pathogens, P. aeruginosa wild-type; type: cell-based; conditions: Pseudomonas aeruginosa, PAO1, P. aeruginosa PAO1, wild-type; read-out: MIC Pa WT
[9] = test system: E. coli (ΔtolC efflux-defective mutant, isogenic to ATCC 25922); test: microbe, parasite or virus in culture; type: cell-based; conditions: Escherichia coli, ATCC25922, read-out: MIC Ec ΔtolC
[10] = test system: S. aureus (ATCC 29213, wild-type); test: MIC on ESKAPE pathogens, S. aureus; type: cell-based; conditions: Staphylococcus aureus, ATCC29213
MtNDH-2 = MtNDH-2 (Mycobacterium tuberculosis, UniProt P95160); test: biochemical; set-up: species or system M. tuberculosis; conditions: MtNDH-2 IC50
[11] = test system: E. coli MG1655 ΔtolC resistant mutants; test: microbe, parasite or virus in culture; type: cell-based; conditions: for MIC: Escherichia coli
[12] = 95% confidence interval in parentheses, 50 nM enzyme, 50 μM menadione, >100: no significant inhibition at 100 μM
[13] = same IC50 given in μg/mL to assist comparisons with MICs

Chain of MsNDH-2 (A0QYD6 1-457): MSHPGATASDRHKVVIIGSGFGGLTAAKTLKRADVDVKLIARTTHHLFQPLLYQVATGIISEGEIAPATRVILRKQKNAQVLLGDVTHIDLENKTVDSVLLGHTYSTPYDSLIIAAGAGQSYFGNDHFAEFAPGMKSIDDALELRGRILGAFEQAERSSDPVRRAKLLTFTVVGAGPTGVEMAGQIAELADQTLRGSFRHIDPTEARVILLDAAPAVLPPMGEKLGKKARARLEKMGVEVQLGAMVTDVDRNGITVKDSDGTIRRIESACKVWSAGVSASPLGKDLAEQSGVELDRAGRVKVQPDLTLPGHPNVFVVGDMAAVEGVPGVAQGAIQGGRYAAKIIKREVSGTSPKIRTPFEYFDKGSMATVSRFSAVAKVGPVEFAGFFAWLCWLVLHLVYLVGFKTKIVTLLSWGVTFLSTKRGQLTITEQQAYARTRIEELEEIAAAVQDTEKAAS
Chain of MtNDH-2 (P95160 2-463, added parts left off): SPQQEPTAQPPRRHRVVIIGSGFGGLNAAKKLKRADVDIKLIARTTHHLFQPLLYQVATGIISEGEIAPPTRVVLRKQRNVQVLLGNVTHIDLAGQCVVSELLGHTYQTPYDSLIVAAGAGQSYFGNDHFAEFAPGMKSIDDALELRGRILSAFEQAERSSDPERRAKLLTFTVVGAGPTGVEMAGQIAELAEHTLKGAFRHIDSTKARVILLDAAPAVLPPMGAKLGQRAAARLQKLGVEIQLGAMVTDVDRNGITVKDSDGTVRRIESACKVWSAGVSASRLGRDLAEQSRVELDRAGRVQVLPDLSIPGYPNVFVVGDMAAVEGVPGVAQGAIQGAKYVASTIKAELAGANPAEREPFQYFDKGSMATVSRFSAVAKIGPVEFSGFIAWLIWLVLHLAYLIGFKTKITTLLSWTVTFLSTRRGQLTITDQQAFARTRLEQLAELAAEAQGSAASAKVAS

SMILES | MIC Kp WT [1] | MIC [2] | MIC [3] | MIC [4] | IC50 (MsNDH-2; [12]) | IC50 (MsNDH-2; [13]) | IC50 at 3 days ([5]; resazurin) | IC50 at 3 days ([5]; value in parentheses) | MIC [6] | MIC [7] | MIC [8] | MIC [9] | MIC [10] | IC50 (MtNDH-2) | other results
Nc1nc(Cl)cc(Nc2ccc3nc(-c4ccc(F)cc4)cc(N)c3c2)n1 [Compound 7, N^6-(2-Amino-6-chloropyrimidin-4-yl)-2-(4-fluorophenyl)quinoline-4,6-diamine] | >128 µg/mL | 4.7 µg/mL (≈ 12.3 µM) | > 128 µg/mL | 16 µg/mL (≈ 42 µM) | 3.1 µM | 3.15 µM | 1.1 µM | 0.4 µg/mL | 2 µg/mL (≈ 5.25 µM) | 16 µg/mL (≈ 42 µM) | > 128 µg/mL | 64 µg/mL (≈ 168 µM) | 4 µg/mL (≈ 10.5 µM) |  | 
Nc1nc(Nc2ccc3nc(-c4ccc(F)cc4)cc(N)c3c2)cc(N2CCNCC2)n1 [Compound 8a, N^6-(2-Amino-6-(piperazin-1-yl)pyrimidin-4-yl)-2-(4-fluorophenyl)quinoline-4,6-diamine] | >64 µg/mL | > 43 µg/mL | 8 µg/mL (≈ 18.6 µM) | 4 µg/mL (≈ 9.29 µM) | 9.7 µM | 9.76 µM | 24 µM | 10 µg/mL | > 64 µg/mL | 4 µg/mL (≈ 9.29 µM) | 8 µg/mL (≈ 18.6 µM) |  | 32 µg/mL (≈ 74.3 µM) | 3.1 µM and 3.02 µM | MIC ([11]; MG1655, read-out: MIC mutant, mutant CH4954 raised against 8a, basS (pmrB) Glu121Lys waaY (rfaY) Asp160fs): 8 µg/mL (≈ 18.6 µM); MIC ([11]; MG1655, read-out: MIC mutant, mutant CH4955 raised against 8a, basR (pmrA) Gly53Glu): 16 µg/mL (≈ 37.2 µM); MIC ([11]; MG1655, read-out: MIC mutant, mutant CH4956 raised against 8a, basS (pmrB) Leu10Arg): 8 µg/mL (≈ 18.6 µM); MIC ([11]; MG1655, read-out: MIC mutant, mutant CH4957 raised against 8a, asmA Asn295fs waaP (rfaP) Glu258 stop codon): 16 µg/mL (≈ 37.2 µM); MIC ([11]; MG1655, read-out: MIC mutant, mutant CH5084 raised against 8a, basS (pmrB) Ala159Pro preB Ala13fs): 16 µg/mL (≈ 37.2 µM); fold increase of MIC ([11]; mutant CH4954 vs parent E. coli MG1655 ΔtolC): 2; fold increase of MIC ([11]; mutant CH4955 vs parent E. coli MG1655 ΔtolC): 4; fold increase of MIC ([11]; mutant CH4956 vs parent E. coli MG1655 ΔtolC): 2; fold increase of MIC ([11]; mutant CH4957 vs parent E. coli MG1655 ΔtolC): 4; fold increase of MIC ([11]; mutant CH5084 vs parent E. coli MG1655 ΔtolC): 4
CN(C)C1CCN(c2cc(Nc3ccc4nc(-c5ccc(F)cc5)cc(N)c4c3)nc(N)n2)CC1 [Compound 8f, N^6-(2-Amino-6-(4-(dimethylamino)piperidin-1-yl)pyrimidin-4-yl)-2-(4-fluorophenyl)quinoline-4,6-diamine] | >128 µg/mL | 10.9 µg/mL (≈ 23.1 µM) | > 128 µg/mL |  | > 100 µM | > 99.5 µM |  |  | > 128 µg/mL | 32 µg/mL (≈ 67.7 µM) | 32 µg/mL (≈ 67.7 µM) | 32 µg/mL (≈ 67.7 µM) | > 128 µg/mL | 5.6 µM and 5.5 µM | 
Fc1ccc(-c2ccc3cc(Nc4cc(N5CCNCC5)ncn4)ccc3n2)cc1 [Compound 23, 2-(4-Fluorophenyl)-N-(6-(piperazin-1-yl)pyrimidin-4-yl)quinolin-6-amine] | 64 µg/mL (≈ 160 µM) | 7.1 µg/mL (≈ 17.7 µM) | > 64 µg/mL | 4 µg/mL (≈ 9.99 µM) | 24 µM | 24 µM | 7.9 µM | 3.2 µg/mL | 64 µg/mL (≈ 160 µM) | 16 µg/mL (≈ 40 µM) | > 64 µg/mL | 8 µg/mL (≈ 20 µM) | 8 µg/mL (≈ 20 µM) |  | 
Nc1nc(Nc2ccc3nc(-c4ccc(F)cc4)cc(N)c3c2)cc(N2CCCC(O)C2)n1 (stereo not drawn) [Compound 8o, 1-(2-Amino-6-((4-amino-2-(4-fluorophenyl)quinolin-6-yl)amino)pyrimidin-4-yl)piperidin-3-ol] | >64 µg/mL | 10.2 µg/mL (≈ 22.9 µM) | 32 µg/mL (≈ 71.8 µM) | 32 µg/mL (≈ 71.8 µM) |  |  |  |  | 32 µg/mL (≈ 71.8 µM) | 16 µg/mL (≈ 35.9 µM) | > 64 µg/mL | 16 µg/mL (≈ 35.9 µM) | 64 µg/mL (≈ 144 µM) | 3.4 µM and 3.37 µM | 
Nc1ccc2nc(-c3ccc(F)cc3)cc(N)c2c1 [Compound 6, 2-(4-Fluorophenyl)quinoline-4,6-diamine] | >64 µg/mL | 12.5 µg/mL (≈ 49.4 µM) | > 64 µg/mL | 64 µg/mL (≈ 253 µM) |  |  |  |  | > 64 µg/mL | 64 µg/mL (≈ 253 µM) | > 64 µg/mL | > 64 µg/mL | 64 µg/mL (≈ 253 µM) | 1.2 µM and 1.18 µM | 
NCC1CCN(c2cc(Nc3ccc4nc(-c5ccc(F)cc5)cc(N)c4c3)nc(N)n2)CC1 [Compound 8h, N^6-(2-Amino-6-(4-(aminomethyl)piperidin-1-yl)pyrimidin-4-yl)-2-(4-fluorophenyl)quinoline-4,6-diamine] | >128 µg/mL | > 46 µg/mL | 64 µg/mL (≈ 140 µM) | 8 µg/mL (≈ 17.4 µM) | 6.9 µM | 6.98 µM | 8 µM | 3.7 µg/mL | > 128 µg/mL | 8 µg/mL (≈ 17.4 µM) | 4 µg/mL (≈ 8.72 µM) | 16 µg/mL (≈ 34.9 µM) | 32 µg/mL (≈ 69.8 µM) |  | 
Nc1nc(Nc2ccc3nc(-c4ccc(F)cc4)cc(N)c3c2)cc(N2CCOCC2)n1 [Compound 8b, N^6-(2-Amino-6-morpholinopyrimidin-4-yl)-2-(4-fluorophenyl) quinoline-4,6-diamine] | 64 µg/mL (≈ 148 µM) |  | 64 µg/mL (≈ 148 µM) | 32 µg/mL (≈ 74.2 µM) | > 100 µM | > 99.7 µM |  |  | 16 µg/mL (≈ 37.1 µM) | 16 µg/mL (≈ 37.1 µM) | ≥ 64 µg/mL | 16 µg/mL (≈ 37.1 µM) | 32 µg/mL (≈ 74.2 µM) |  | 
Nc1nc(Nc2ccc3nc(-c4ccc(F)cc4)cc(N)c3c2)cc(N2CCC(O)CC2)n1 [Compound 8p, 1-(2-Amino-6-((4-amino-2-(4-fluorophenyl)quinolin-6-yl)amino)pyrimidin-4-yl)piperidin-4-ol] | >64 µg/mL | 16.5 µg/mL (≈ 37 µM) | 64 µg/mL (≈ 144 µM) | > 64 µg/mL |  |  |  |  | 64 µg/mL (≈ 144 µM) | 32 µg/mL (≈ 71.8 µM) | > 64 µg/mL | 32 µg/mL (≈ 71.8 µM) | 64 µg/mL (≈ 144 µM) | 5.1 µM and 5.16 µM | 
Nc1nc(Nc2ccc3nc(-c4ccc(F)cc4)ccc3c2)cc(N2CCNCC2)n1 [Compound 21, N^4-(2-(4-Fluorophenyl)quinolin-6-yl)-6-(piperazin-1-yl)pyrimidine-2,4-diamine] | 64 µg/mL (≈ 154 µM) | 22.3 µg/mL (≈ 53.7 µM) | 16 µg/mL (≈ 38.5 µM) | 4 µg/mL (≈ 9.63 µM) | 32 µM | 31.3 µM | 8 µM | 3.3 µg/mL | 32 µg/mL (≈ 77 µM) | 16 µg/mL (≈ 38.5 µM) | > 64 µg/mL | 8 µg/mL (≈ 19.3 µM) | 8 µg/mL (≈ 19.3 µM) |  | 

From PMC8922281, “Synthesis and In Vitro Biological Evaluation of Quinolinyl Pyrimidines Targeting Type II NADH-Dehydrogenase (NDH-2)” (ACS Infectious Diseases, 2022)
